Test results taken from patent US7951836B2, “Substituted phenyl methanone derivatives” (Hoffmann-La Roche Inc., priority 2006, dated 2011).
Where two headings read alike, the source gives them in different places.

Biological target: T1, mGlyT-1b (Mus musculus, UniProt P28571)
T1 construct: host or cells: Flp-in-CHO
T1 sequence (P28571 1-651 isoform P28571-2): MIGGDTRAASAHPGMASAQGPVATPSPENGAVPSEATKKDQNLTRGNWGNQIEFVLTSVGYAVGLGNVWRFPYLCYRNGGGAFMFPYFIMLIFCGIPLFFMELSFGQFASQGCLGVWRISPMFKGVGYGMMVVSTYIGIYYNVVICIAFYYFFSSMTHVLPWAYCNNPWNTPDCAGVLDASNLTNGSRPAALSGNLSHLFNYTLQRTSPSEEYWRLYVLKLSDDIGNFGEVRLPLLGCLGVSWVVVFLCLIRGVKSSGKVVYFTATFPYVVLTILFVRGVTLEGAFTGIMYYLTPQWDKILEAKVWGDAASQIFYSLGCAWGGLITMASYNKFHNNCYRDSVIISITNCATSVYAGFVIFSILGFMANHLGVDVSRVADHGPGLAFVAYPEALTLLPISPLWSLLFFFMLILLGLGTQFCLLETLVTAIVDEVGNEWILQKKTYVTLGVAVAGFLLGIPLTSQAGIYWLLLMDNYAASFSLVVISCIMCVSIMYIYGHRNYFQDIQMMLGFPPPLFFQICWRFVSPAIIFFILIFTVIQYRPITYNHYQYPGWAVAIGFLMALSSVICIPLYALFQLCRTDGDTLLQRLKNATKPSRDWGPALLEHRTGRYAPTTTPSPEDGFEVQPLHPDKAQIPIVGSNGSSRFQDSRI
Assay: Glycine uptake inhibition assay (mGlyT-1b)
Assay type: cell-based
Protocol: DMEM complete medium: Nutrient mixture F-12 (Gibco Life-technologies), fetal bovine serum (FBS) 5%, (Gibco life technologies), Penicillin/Streptomycin 1% (Gibco life technologies), Hygromycin 0.6 mg/ml (Gibco life technologies), Glutamine 1 mM Gibco life technologies) Uptake buffer (UB): 150 mM NaCl, 10 mM Hepes-Tris, pH 7.4, 1 mM CaCl2, 2.5 mM KCl, 2.5 mM MgSO4, 10 mM (+) D-glucose. Flp-inTM-CHO (Invitrogen Cat n° R758-07) cells stably transfected with mGlyT1b cDNA. Glycine Uptake Inhibition […]) On day 1 mammalian cells, (Flp-inTM-CHO), transfected with […] cDNA, were plated at the density of 40,000 cells/well in complete F-12 medium, without hygromycin in 96-well culture plates. On day 2, the medium was aspirated and the cells were washed twice with uptake buffer (UB). The cells were then incubated for 20 min at 22° C. with either (i) no potential competitor, (ii) 10 mM non-radioactive glycine, (iii) a concentration of a potential inhibitor. A range of concentrations of the potential inhibitor was used to generate data for calculating the concentration of inhibitor resulting in 50% of the effect (e.g. […] The plates were incubated with gentle shaking, and the reaction was stopped by aspiration of the mixture and washing (three times) with ice-cold UB. The cells were lysed with scintillation liquid, shaken 3 hours and the radioactivity in the cells was counted using a scintillation counter.

[1] = [3H]-glycine uptake in Flp-in-CHO cells stably transfected with mGlyT1b cDNA, 20 min preincubation at 22° C., read-out: IC50 (μM) at GlyT-1

Row | Compound | IC50 [1] [µM] | IC50 [µM]
1 | C[C@H](Oc1ccc(S(C)(=O)=O)cc1C(=O)N1CCC(c2ccc(C(F)(F)F)cc2)C1)C(F)(F)F (mixture of isomers) [Example 2, rac-[5-Methanesulfonyl-2-((S)-2,2,2-trifluoro-1-methyl-ethoxy)-phenyl]-[3-(4-trifluoromethyl-phenyl)-pyrrolidin-1-yl]-methanone] | 0.22 | 
2 | C[C@H](Oc1ccc(S(C)(=O)=O)cc1C(=O)N1CCC(Cc2ccc(C(F)(F)F)cc2)C1)C(F)(F)F (mixture of isomers) [Example 11, rac-[5-Methanesulfonyl-2-((S)-2,2,2-trifluoro-1-methyl-ethoxy)-phenyl]-[3-(4-trifluoromethyl-benzyl)-pyrrolidin-1-yl]-methanone] | 0.11 | 
3 | CS(=O)(=O)c1ccc(OCC(F)(F)C(F)(F)F)c(C(=O)N2CCC(Cc3ccc(C(F)(F)F)cc3)C2)c1 (racemic) [Example 13, rac-[5-Methanesulfonyl-2-(2,2,3,3,3-pentafluoro-propoxy)-phenyl]-[3-(4-trifluoromethyl-benzyl)-pyrrolidin-1-yl]-methanone] | 0.09 | 
4 | CS(=O)(=O)c1ccc(-c2ccc(F)cc2)c(C(=O)N2CCC(Cc3ccc(C(F)(F)F)cc3)C2)c1 (racemic) [Example 14, rac-(4′-Fluoro-4-methanesulfonyl-biphenyl-2-yl)-[3-(4-trifluoromethyl-benzyl)-pyrrolidin-1-yl]-methanone] | 0.5 | 
5 | CS(=O)(=O)c1ccc(OCC2CCC2)c(C(=O)N2CCC(Cc3ccc(C(F)(F)F)cc3)C2)c1 (racemic) [Example 15, rac-(2-Cyclobutylmethoxy-5-methanesulfonyl-phenyl)-[3-(4-trifluoromethyl-benzyl)-pyrrolidin-1-yl]-methanone] | 0.24 | 
6 | CS(=O)(=O)c1ccc(OC2CCCC2)c(C(=O)N2CCC(Cc3ccc(C(F)(F)F)cc3)C2)c1 (racemic) [Example 16, rac-(2-Cyclopentyloxy-5-methanesulfonyl-phenyl)-[3-(4-trifluoromethyl-benzyl)-pyrrolidin-1-yl]-methanone] | 0.32 | 
7 | C[C@H](Oc1ccc(S(C)(=O)=O)cc1C(=O)N1CCC(COc2ccc(Cl)cc2)C1)C(F)(F)F (mixture of isomers) [Example 29, rac-[3-(4-Chloro-phenoxymethyl)-pyrrolidin-1-yl]-[5-methanesulfonyl-2-((S)-2,2,2-trifluoro-1-methyl-ethoxy)-phenyl]-methanone] |  | 0.2
8 | Cc1ccc(OCC2CCN(C(=O)c3cc(S(C)(=O)=O)ccc3O[C@@H](C)C(F)(F)F)C2)cc1 (mixture of isomers) [Example 30, rac-[5-Methanesulfonyl-2-((S)-2,2,2-trifluoro-1-methyl-ethoxy)-phenyl]-(3-p-tolyloxymethyl-pyrrolidin-1-yl)-methanone] | 0.27 | 
9 | C[C@H](Oc1ccc(S(C)(=O)=O)cc1C(=O)N1CCC(COc2ccc(-c3ccccc3)cc2)C1)C(F)(F)F (mixture of isomers) [Example 31, rac-[3-(Biphenyl-4-yloxymethyl)-pyrrolidin-1-yl]-[5-methanesulfonyl-2-((S)-2,2,2-trifluoro-1-methyl-ethoxy)-phenyl]-methanone] | 0.45 | 
10 | C[C@H](Oc1ccc(S(C)(=O)=O)cc1C(=O)N1CCC(COc2ccc(C#N)cc2)C1)C(F)(F)F (mixture of isomers) [Example 32, rac-4-{1-[5-Methanesulfonyl-2-((S)-2,2,2-trifluoro-1-methyl-ethoxy)-benzoyl]-pyrrolidin-3-ylmethoxy}-benzonitrile] |  | 0.21
11 | C[C@H](Oc1ccc(S(C)(=O)=O)cc1C(=O)N1CCC(COc2ccc([N+](=O)[O-])cc2)C1)C(F)(F)F (mixture of isomers) [Example 33, rac-[5-Methanesulfonyl-2-((S)-2,2,2-trifluoro-1-methyl-ethoxy)-phenyl]-[3-(4-nitro-phenoxymethyl)-pyrrolidin-1-yl]-methanone] | 0.17 | 
12 | C[C@H](Oc1ccc(S(C)(=O)=O)cc1C(=O)N1CCC(COc2ccc(OC(F)(F)F)cc2)C1)C(F)(F)F (mixture of isomers) [Example 35, rac-[5-Methanesulfonyl-2-((S)-2,2,2-trifluoro-1-methyl-ethoxy)-phenyl]-[3-(4-trifluoromethoxy-phenoxymethyl)-pyrrolidin-1-yl]-methanone] | 0.13 | 
13 | C[C@H](Oc1ccc(S(C)(=O)=O)cc1C(=O)N1CCC(COc2ccc(Cl)c(Cl)c2)C1)C(F)(F)F (mixture of isomers) [Example 36, rac-[3-(3,4-Dichloro-phenoxymethyl)-pyrrolidin-1-yl]-[5-methanesulfonyl-2-((S)-2,2,2-trifluoro-1-methyl-ethoxy)-phenyl]-methanone] | 0.13 | 
14 | COc1cccc(OCC2CCN(C(=O)c3cc(S(C)(=O)=O)ccc3O[C@@H](C)C(F)(F)F)C2)c1 (mixture of isomers) [Example 37, rac-[5-Methanesulfonyl-2-((S)-2,2,2-trifluoro-1-methyl-ethoxy)-phenyl]-[3-(3-methoxy-phenoxymethyl)-pyrrolidin-1-yl]-methanone] | 0.17 | 
